Holding throughout (format): functional
For test [1], the system named is Human alphaherpesvirus 1. The test is described as follows: The compound was tested in vitro for anti viral activity against Herpes simplex virus type 1 (strain 377).
Test [2] relates to Human alphaherpesvirus 1. The test is described as follows: Minimum inhibitory concentration required to inhibit Herpes simplex virus type 1 (strain 377) induced cytopathogenic effects by 50%. Background: Cytopathic effects are the visible damage that an infection or toxin causes in cultured cells.
The test system of a further test is P388. The test is described as follows: Tested for inhibitory activity against P-388 leukemia cells. To be noted: Mus musculus, read-out: ED50 (the source's name).
Test [3] relates to Human alphaherpesvirus 1. The experiment in a line: The compound was tested in vitro for definite and significant anti viral activity against Herpes simplex virus type 1 (strain 377); value indicates definite and significant antiviral activity.

Values after ≈ are worked out from the molar mass of the structure shown.

In the case of `Nc1nc(N)c2ncn(C3CC(CO)C(O)C3O)c2n1` (stereo not drawn), the Virus rating in the test on Human alphaherpesvirus 1 [1] is 2.7. The compound also gave an MIC50 against Human alphaherpesvirus 1 [2] of 85 µg/mL (≈ 303 µM). Also, in the test with P388, the EC50 stood at 39 µM.

Turning to `Nc1nc(Cl)c2nnn(C3CC(CO)C(O)C3O)c2n1` (stereo not drawn), the Virus rating with Human alphaherpesvirus 1 [1] came to 0.6. For the same compound, the MIC50 in the test with Human alphaherpesvirus 1 [2] came out at 100 µg/mL (≈ 333 µM). In the test on P388, the EC50 is 50 µM.

On to `Nc1nc(Cl)c2ncn(C3CC(CO)C(O)C3O)c2n1` (stereo not drawn), for which the Virus rating in the test on Human alphaherpesvirus 1 [1] was 1.8. The MIC50 against Human alphaherpesvirus 1 [2] turned out to be 100 µg/mL (≈ 334 µM). Moreover, the EC50 with P388 turned out to be 220 µM.

As for `Nc1nc(N)c2nnn(C3CC(CO)C(O)C3O)c2n1` (stereo not drawn), the Virus rating with Human alphaherpesvirus 1 [3] came to 2. Besides, the MIC50 against Human alphaherpesvirus 1 [2] was found to be 66.9 µg/mL (≈ 238 µM). In the test with P388, the EC50 worked out at 5.3 µM.

Regarding `COc1nc(N)nc2c1nnn2C1CC(CO)C(O)C1O` (stereo not drawn), in the test on P388, the EC50 was 63 µM.

The values are drawn from ChEMBL document CHEMBL1123640, “Synthesis and antiviral activity of carbocyclic analogues of xylofuranosides of 2-amino-6-substituted-purines and 2-amino-6-substituted-8-azapurines” (1987).
